Laboratory results published in the supplement of paper PMC10949913.

How the values were obtained:
Experiment in all cases: area under concentration-response curve (viability) (AUC (a.u.)); higher = less active
Details in all cases: 48 h
CU-ACC1 = system: CU-ACC1
How it was run: (§1)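 Library compounds were tested at 11 concentrations against three adrenocortical carcinoma cell lines in 1,536-well plates. CellTiter-Glo luminescence was read after 48 h and normalised per plate to vehicle and empty-well controls. Only inhibitory or non-responding curve classes from fitted concentration-response curves contributed AC50 and area under the curve.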

CU-ACC2 = system: CU-ACC2
How it was run: as §1

NCI-H295R = system: NCI-H295R
How it was run: as §1

c1cc(-c2sc(-c3ccncc3)c(-c3ccncc3)c2-c2ccncc2)ccn1
area under concentration-response curve (CU-ACC1): 549
area under concentration-response curve (CU-ACC2): 544
area under concentration-response curve (NCI-H295R): 565

O=C(NCC(=O)N1CCCC1)Nc1ccc2cnccc2c1
area under concentration-response curve (CU-ACC1): 565
area under concentration-response curve (CU-ACC2): 633
area under concentration-response curve (NCI-H295R): 569

CCOC(=O)[C@H](CCc1ccccc1)N[C@@H](C)C(=O)N1[C@H](C(=O)O)C[C@@H]2CCC[C@@H]21
area under concentration-response curve (CU-ACC1): 545
area under concentration-response curve (CU-ACC2): 649
area under concentration-response curve (NCI-H295R): 595

CNC(=O)c1c(C)oc2cc(Oc3ncnc4cc(OC)c(OC)cc34)ccc12
area under concentration-response curve (CU-ACC1): 535
area under concentration-response curve (CU-ACC2): 624
area under concentration-response curve (NCI-H295R): 593

Cc1cnc(-c2cc(N3CCN(C(=O)CC[S+](C)(=O)[O-])CC3)ncc2Cl)c(C)c1
area under concentration-response curve (CU-ACC1): 536
area under concentration-response curve (CU-ACC2): 534
area under concentration-response curve (NCI-H295R): 551

NCCc1ccc(O)c(O)c1
area under concentration-response curve (CU-ACC1): 506
area under concentration-response curve (CU-ACC2): 586
area under concentration-response curve (NCI-H295R): 478

COc1ccc(Cl)c(Nc2nc3ccccc3nc2N[S+](=O)([O-])c2cccc(NC(=O)C(C)(C)N)c2)c1
area under concentration-response curve (CU-ACC1): 459
area under concentration-response curve (CU-ACC2): 536
area under concentration-response curve (NCI-H295R): 439

COc1ccc(COc2cc3oc(=O)c4cc(C(C)O)ccc4c3cc2OC)cc1 (configuration not stated)
area under concentration-response curve (CU-ACC1): 356
area under concentration-response curve (CU-ACC2): 506
area under concentration-response curve (NCI-H295R): 466

O=C(NCC1CCOCC1)c1cnc(Nc2ccc(Cl)cc2Cl)nc1C(F)(F)F
area under concentration-response curve (CU-ACC1): 399
area under concentration-response curve (CU-ACC2): 562
area under concentration-response curve (NCI-H295R): 525

O=C(O)C(=O)c1cn(Cc2ccccc2)c2ccc(-c3ccc(OC(F)(F)F)cc3)cc12
area under concentration-response curve (CU-ACC1): 474
area under concentration-response curve (CU-ACC2): 489
area under concentration-response curve (NCI-H295R): 489

CC(S)C(=O)NCC(=O)O (configuration not stated)
area under concentration-response curve (CU-ACC1): 547
area under concentration-response curve (CU-ACC2): 632
area under concentration-response curve (NCI-H295R): 563

O=C1CC[C@H](N2Cc3c(OCc4ccc(CN5CCOCC5)cc4)cccc3C2=O)C(=O)N1
area under concentration-response curve (CU-ACC1): 517
area under concentration-response curve (CU-ACC2): 606
area under concentration-response curve (NCI-H295R): 552

COC1=C(OC)C=C2CN(CCC3=CC=C(C=C3)[N]4N=NC(=N4)C5=CC(=C(OC)C=C5NC(=O)\C6=C\C(=O)C7=CC=CC=C7O6)OC)CCC2=C1
area under concentration-response curve (CU-ACC1): 735
area under concentration-response curve (CU-ACC2): 654
area under concentration-response curve (NCI-H295R): 688

Oc1ccc(OCc2ccccc2)cc1
area under concentration-response curve (CU-ACC1): 378
area under concentration-response curve (CU-ACC2): 353
area under concentration-response curve (NCI-H295R): 417

Nc1nccc(-c2c(-c3ccc(F)cc3)ncn2C2CCN(Cc3ccon3)CC2)n1
area under concentration-response curve (CU-ACC1): 467
area under concentration-response curve (CU-ACC2): 578
area under concentration-response curve (NCI-H295R): 495

CC(C)n1cc(-c2ccc3c(c2)N(C)CC3)c2c(N[S+](=O)([O-])c3ccn(C)n3)ccnc21
area under concentration-response curve (CU-ACC1): 516
area under concentration-response curve (CU-ACC2): 638
area under concentration-response curve (NCI-H295R): 568

CC(/C=C1\SC(=S)N(CC(=O)O)C1=O)=C\c1ccccc1
area under concentration-response curve (CU-ACC1): 494
area under concentration-response curve (CU-ACC2): 594
area under concentration-response curve (NCI-H295R): 492

[O-][S+]1(=O)/N=C(/NC2=CC(=CC=C2)NC(=O)CCl)C3=CC=CC=C13
area under concentration-response curve (CU-ACC1): 446
area under concentration-response curve (CU-ACC2): 557
area under concentration-response curve (NCI-H295R): 528

O=C(NCc1ccccc1)[C@H](Cc1ccccc1)NC(=O)[C@H]1O[C@@H]1C(=O)NCCc1ccc(O)cc1
area under concentration-response curve (CU-ACC1): 495
area under concentration-response curve (CU-ACC2): 557
area under concentration-response curve (NCI-H295R): 524

COc1cc2ncnc(-n3nc(-c4ccccn4)nc3N)c2cc1OC
area under concentration-response curve (CU-ACC1): 458
area under concentration-response curve (CU-ACC2): 551
area under concentration-response curve (NCI-H295R): 489

C=C1C(=O)OC(CCCCCCCC)C1C(=O)O (configuration not stated)
area under concentration-response curve (CU-ACC1): 409
area under concentration-response curve (CU-ACC2): 457
area under concentration-response curve (NCI-H295R): 437

CCCCNc1cc(C(=O)O)cc([S+](N)(=O)[O-])c1Oc1ccccc1
area under concentration-response curve (CU-ACC1): 505
area under concentration-response curve (CU-ACC2): 596
area under concentration-response curve (NCI-H295R): 553

Nc1ncnc2c1ncn2[C@@H]1O[C@H](CO)[C@@H](O)[C@@H]1O
area under concentration-response curve (CU-ACC1): 496
area under concentration-response curve (CU-ACC2): 582
area under concentration-response curve (NCI-H295R): 515

C[C@H]1CN(C[C@@H](C)N1)C2=C(F)C3=C(C(=C2F)N)C(=O)\C(=C/N3C4CC4)C(O)=O
area under concentration-response curve (CU-ACC1): 512
area under concentration-response curve (CU-ACC2): 503
area under concentration-response curve (NCI-H295R): 537

O[C@@H]1C\C(=C/C(O)C1O)C(O)=O (some centres not stated)
area under concentration-response curve (CU-ACC1): 512
area under concentration-response curve (CU-ACC2): 614
area under concentration-response curve (NCI-H295R): 581

OC(=O)CNC(=O)\C1=C(/O)C2=CC=CC=C2N(CC3=CC=CC=C3)C1=O
area under concentration-response curve (CU-ACC1): 441
area under concentration-response curve (CU-ACC2): 539
area under concentration-response curve (NCI-H295R): 529

CN1CCC(CC1)COC2=CN=C(N=C2)C3=CC(=CC=C3)CN4/N=C(\C=C/C4=O)C5=CC(=CC=C5)C#N
area under concentration-response curve (CU-ACC1): 474
area under concentration-response curve (CU-ACC2): 596
area under concentration-response curve (NCI-H295R): 549

O=C([O-])C(O)Cc1ccc(O)c(O)c1 (configuration not stated)
area under concentration-response curve (CU-ACC1): 460
area under concentration-response curve (CU-ACC2): 589
area under concentration-response curve (NCI-H295R): 553

C[S+]([O-])(=O)NC1=CC2=C(C=C1OC3=CC=CC=C3)C(=O)\C(=C/O2)NC=O
area under concentration-response curve (CU-ACC1): 477
area under concentration-response curve (CU-ACC2): 508
area under concentration-response curve (NCI-H295R): 487

NNCCc1ccccc1.O=S(=O)(O)O
area under concentration-response curve (CU-ACC1): 450
area under concentration-response curve (CU-ACC2): 530
area under concentration-response curve (NCI-H295R): 486

O=C(O)CSCC(=O)NC1CCSC1=O (configuration not stated)
area under concentration-response curve (CU-ACC1): 379
area under concentration-response curve (CU-ACC2): 415
area under concentration-response curve (NCI-H295R): 405

C[S+](=O)([O-])c1ccc(-c2nnc(/C=C/c3nnc(-c4ccc(C#N)cc4)o3)n2-c2ccccc2Cl)nc1
area under concentration-response curve (CU-ACC1): 537
area under concentration-response curve (CU-ACC2): 603
area under concentration-response curve (NCI-H295R): 524

O=C(N[C@H]1CN2CCC1CC2)c1ccc(Cl)cc1
area under concentration-response curve (CU-ACC1): 495
area under concentration-response curve (CU-ACC2): 616
area under concentration-response curve (NCI-H295R): 554

C[C@H]1C[C@H]2[C@@H]3CC\C4=C\C(=O)\C=C/[C@]4(C)[C@H]3C(=O)C[C@]2(C)[C@@]1(O)C(=O)CO
area under concentration-response curve (CU-ACC1): 511
area under concentration-response curve (CU-ACC2): 618
area under concentration-response curve (NCI-H295R): 488

CCCCOC(=O)N[S+](=O)([O-])c1sc(CC(C)C)cc1-c1ccc(Cn2ccnc2)cc1
area under concentration-response curve (CU-ACC1): 357
area under concentration-response curve (CU-ACC2): 412
area under concentration-response curve (NCI-H295R): 460

Clc1ccc(-c2nc3sccn3c2/C=N/OCc2ccc(Cl)c(Cl)c2)cc1
area under concentration-response curve (CU-ACC1): 490
area under concentration-response curve (CU-ACC2): 549
area under concentration-response curve (NCI-H295R): 425

N\C1=N\C2=C(N=C[N]2COCCO)C(=O)N1
area under concentration-response curve (CU-ACC1): 420
area under concentration-response curve (CU-ACC2): 616
area under concentration-response curve (NCI-H295R): 584

Cc1ccc(C(=O)c2cc(O)c(O)c([N+](=O)[O-])c2)cc1
area under concentration-response curve (CU-ACC1): 551
area under concentration-response curve (CU-ACC2): 645
area under concentration-response curve (NCI-H295R): 598

O=C1NC(=O)/C(=C/c2ccc(-c3ccc(F)cc3O)o2)S1
area under concentration-response curve (CU-ACC1): 580
area under concentration-response curve (CU-ACC2): 611
area under concentration-response curve (NCI-H295R): 575

Cn1cc(-c2c[nH]c3ncnc(N4CCOCC4)c23)cn1
area under concentration-response curve (CU-ACC1): 543
area under concentration-response curve (CU-ACC2): 610
area under concentration-response curve (NCI-H295R): 576

CC(C)[C@H]1C(=O)N[C@@H](CCCN=C(N)N)C(=O)NCC(=O)N[C@@H](CC(=O)O)C(=O)N[C@H](Cc2ccccc2)C(=O)N1C
area under concentration-response curve (CU-ACC1): 443
area under concentration-response curve (CU-ACC2): 624
area under concentration-response curve (NCI-H295R): 601

NC(=O)C1CCCc2c1[nH]c1ccc(Cl)cc21 (configuration not stated)
area under concentration-response curve (CU-ACC1): 496
area under concentration-response curve (CU-ACC2): 597
area under concentration-response curve (NCI-H295R): 545

O[C@H](C[C@H]1c2c(F)cccc2-c2cncn21)[C@H]1CC[C@H](O)CC1
area under concentration-response curve (CU-ACC1): 553
area under concentration-response curve (CU-ACC2): 616
area under concentration-response curve (NCI-H295R): 536

N[C@@H](Cc1ccc(O)c(O)c1)C(=O)O
area under concentration-response curve (CU-ACC1): 503
area under concentration-response curve (CU-ACC2): 612
area under concentration-response curve (NCI-H295R): 534

NC(CC1c2ccccc2Oc2ccccc21)(C(=O)O)C1CC1C(=O)O (configuration not stated)
area under concentration-response curve (CU-ACC1): 530
area under concentration-response curve (CU-ACC2): 621
area under concentration-response curve (NCI-H295R): 512

Cc1noc(-c2ccc(-c3ccc(C4(C(=O)O)CC4)cc3)cc2)c1NC(=O)O[C@H](C)c1ccccc1
area under concentration-response curve (CU-ACC1): 485
area under concentration-response curve (CU-ACC2): 446
area under concentration-response curve (NCI-H295R): 526

CNc1nc(Nc2cnn([C@H]3CCN(C4COC4)C[C@@H]3F)c2Cl)ncc1C(F)(F)F
area under concentration-response curve (CU-ACC1): 562
area under concentration-response curve (CU-ACC2): 604
area under concentration-response curve (NCI-H295R): 566

Cc1ccc(Nc2nccc(N(C)c3ccc4c(C)n(C)nc4c3)n2)cc1[S+](N)(=O)[O-]
area under concentration-response curve (CU-ACC1): 516
area under concentration-response curve (CU-ACC2): 620
area under concentration-response curve (NCI-H295R): 570

Cc1ccc(NC(=O)c2cccc(N(C)C)c2)cc1NC(=O)c1ccc(O)cc1
area under concentration-response curve (CU-ACC1): 496
area under concentration-response curve (CU-ACC2): 556
area under concentration-response curve (NCI-H295R): 511
